Data as given in patent US10624992B2, “Human airway stem cells in lung epithelial engineering” (The General Hospital Corporation, priority 2016, dated 2020).

Assays:
[1] = test system: primary epithelial basal cells (BESCs); test: Notch inhibitor treatment of primary epithelial basal cells in vitro (qPCR, immunofluorescence); format: cell-based, human; conditions: 5 days in vitro, compared to No Treatment
Description: (§1) Donor lung peripheral tissue (1-inch cubed) was washed in αMEM and then chopped into ˜¼ inch pieces with scissors and digested in 0.1 mg/ml DNAse (Sigma) and 1.4 mg/ml Pronase (Roche, 11459643001) for 24 hours/4° C. (52). Digested tissue was plated onto uncoated culture flasks in SAGM for 30 minutes/37° C., then non-adherent cells transferred and adhered to human Collagen-IV (Sigma-Aldrich C7521)-coated flasks. Epithelial cells were maintained in SAGM (Lonza, CC-3118) and passaged at 80% confluent (approximately 3-5 days/passage). For cells treated with γ-secretase inhibitors (1) 3-Isobutyl-1-methylxanthine (100 μg/ml IBMX, Sigma-Aldrich, 15879) and (2) N-[(3,5-Difluorophenyl)acetyl]-L-alanyl-2-phenyl]glycine-1,1-dimethylethyl ester (50 μg/ml DAPT, Selleck Chemicals, S2215), media was changed daily. Primary endothelial cells were isolated from the large vessels of donor lungs using the same digestion protocol. The endothelial population was sorted for CD31^+ purity by flow cytometry, and maintained and expanded on Gelatin coated flasks in EGM2 (Lonza, CC-3162) until utilized for human lung recellularization (See FIGS. 7A-B). RNA was isolated using the RNEasy Plus (Qiagen). cDNA was transcribed using the Superscript III kit (Invitrogen). Quantitative gene expression was analyzed using Taqman probes and the OneStep Plus system (Applied Biosystems). […]

[2] = test system: BESCs on acellular rat lung scaffolds; test: Rat lung scaffold recellularization and ex vivo culture with Notch inhibitors; format: cell-based, human; conditions: DAPT 50 nM in vitro 5 days, then 5 days ex vivo on rat lung scaffold without inhibitors
Description: Primary lung epithelial cells (passage 3) were harvested from 2-D culture, counted, and re-introduced to the scaffold airways in solution (20 ml) by gravity. Continuous media perfusion through the pulmonary artery was maintained at 4 ml/min by peristaltic pump and changed daily.
RNA was isolated using the RNEasy Plus (Qiagen). cDNA was transcribed using the Superscript III kit (Invitrogen). Quantitative gene expression was analyzed using Taqman probes and the OneStep Plus system (Applied Biosystems). Expression was normalized to β-Actin expression and relative to cadaveric lung tissue control samples.
Primary Antibodies (1:100): p63 (Santa Cruz, sc-25268), Krt5 (Abcam, ab24647), E-cadherin (BD, 610181), Surfactant Protein-B (Millipore, AB3430), pro-Surfactant Protein-C (Abcam, ab3786), Aquaporin-5 (Abcam, ab92320), Acetylated α-Tubulin (Abcam, ab24610), α2β1 integrin (Abcam, ab24697), α3β1 integrin (Abcam, ab24696), and CD31 (Daki, M082301-2). Secondary antibodies (1:400): Alexafluor 488 and 594 (Life Technologies).

[3] = test system: primary human lung epithelial basal cells; test: Effect of ROCK inhibitor on cell phenotype and senescence during cell isolation and passage; format: cell-based
Description: as §1, with “FIGS. 8A-C: Effect of ROCK Inhibitor on Cell Phenotype and Senescence. […] Donor” for “Donor”, “RNA was isolated using the RNEasy Plus (Qiagen). cDNA was transcribed using the Superscript III kit (Invitrogen).” left out

BESCs [4] = test: In vitro culture of BESCs on Collagen IV plates supplemented with TN-C and/or FBN-2; format: cell-based, human; conditions: 7 d culture, compared to uncoated or Collagen IV coated wells
Description: 24-well plates were pre-coated with human Collagen IV (10 μg/ml) Sigma-Aldrich C7521) for 2 h at 37° C. After removal of the collagen solution, TN-C (10 μg/ml, R&D 3358-TC-050) or the recombinant N-terminal half (FBN-2-N) or C-terminal half (FBN-2-C) of human FBN-2 (10 μg/ml) (Lin et al., The Journal of biological chemistry. 2002; 277(52):50795-804) were then added to select wells, and incubated for 2 h at 37° C. A total of 1×10^5 BESC were subsequently plated to each well and cultured for 7 d in SAGM.
(§2) mRNA was isolated (Qiagen RNeasy Plus Kit) and transcribed to cDNA (Invitrogen SuperScript III). Gene expression was analyzed using Taqman probes and the OneStep Plus system (Applied Biosystems). Each biological sample was analyzed in experimental replicate (n=2 repeated wells of the qPCR reaction) and the Ct value of each replicate was averaged and handed as n=1 unique biologic sample. Expression for each sample was normalized to β-Actin (ACTA1) gene expression (ΔCt) and relative to cadaveric peripheral lung tissue control samples (ΔΔCt), with fold change calculated by 2-ΔΔCt (Livak and Schmittgen, Methods. 2001; 25(4):402-8). A total of n=3 unique biological samples were analyzed for each reported experiment.
After de-paraffinization and rehydration, 5 μm tissue section were permeabilized with 0.1% Triton X-100 for intracellular antigens, when appropriate. […]

BESCs [5] = test: In vitro migration assay on protein coatings; format: cell-based, human; conditions: over 3 h, compared to Collagen IV coating alone, p<0.001; mixture of N- and C-terminal halves of FBN-2
Description: For migration assay, after coating as above, a small inset (MIDI) was added to the wells prior to cell seeding. A total of 1×10^4 cells were seeded within the insert and incubated for 12 h, before the insert was removed. Bright-field images were taken every 30 min for 180 min to track cell migration. Images were analyzed with ImageJ software (Schneider et al., Nature methods. 2012; 9(7):671-5) to quantify the change in cell-free area.

[6] = test system: BESCs on decellularized rat lung scaffolds; test: Ex vivo rat lung recellularization on scaffolds pre-coated with TN-C and/or FBN-2; format: cell-based, human; conditions: Day 3 and 7
Description: Decellularized lung scaffolds were pre-coated with (A) PBS control, (B) TN-C, 10 μg/ml, (C) FBN-2, (10 μg/ml each of N- and C-terminal fragment of FBN-2), or (D) TN-C+FBN-2 (10 μg/ml each of TN-C and of N- and C-terminal fragment of FBN-2), by delivery through the trachea. Solution was recycled to the trachea for 90 min at 37° C. A total of 20×10^6 primary lung epithelial cells (passage 3) were then delivered to the scaffold airways in 20 ml of SAGM by gravity. Constant media perfusion of SAGM through the pulmonary artery was maintained at 4 ml/min (pressure 15-20 mmHg) and changed daily. […]
as §2, with “experiment. […]” for “experiment.”

In the case of `C[C@H](NC(=O)Cc1cc(F)cc(F)c1)C(=O)NC(C(=O)OC(C)(C)C)c1ccccc1` (stereo partly drawn) [DAPT], the “SP-B and SP-C gene expression (type II pneumocyte markers)” value [1] is reported as “ineffective alone” and the “distal type2-like fate after in vitro pre-treatment and inhibitor withdrawal” value [2] is reported as “maintained a distal type2-like fate”.
In the case of `CC(C)Cn1c(=O)n(C)c(=O)c2[nH]cnc21` [IBMX, 3-Isobutyl-1-methylxanthine], the “SP-B and SP-C gene expression (type II pneumocyte markers)” value [1] is reported as “ineffective alone”.
With `C[C@@H](N)[C@H]1CC[C@H](C(=O)Nc2ccncc2)CC1` [Y-27632] the “basal cell population, proliferation (Ki67, PCNA) and senescence (CDKN2A)” value ([3]; during cell isolation and passage) was “did not enhance the basal cell population, or alter proliferation (Ki67, PCNA) or senescence” and the “gene expression, treated vs untreated” value ([3]; passage 1 and passage 4, n=3 cell lines, t-test) was “No significant differences”.
“TN-C: Tenascin-C glycoprotein (R&D 3358-TC-050), used as coating at 10 μg/ml” was tested, and the “proliferation (gene expression)” value (BESCs [4]) was “significantly greater proliferation”, the “senescence (gene expression)” value (BESCs [4]) was “less senescence” and the “BESC migration rate (change in cell-free area)” value (BESCs [5]) was “Significantly higher rates of BESC migration”. For the same compound, the “Ki67 expression of Krt5+ BESCs (immunofluorescence)” value [6] was “significant increase in proliferation”.
